Assay results: PubChem BioAssay (NCI)
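Abbreviation: GI50, concentration required for 50% inhibition of growth. TGI: concentration producing complete growth inhibition.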

Key:
Test in all cases: growth of human tumour cells (NCI), 384-well format
SNB-19 CNS = system: SNB-19 CNS
EKVX NSCLC = system: EKVX NSCLC
SK-OV-3 ovarian = system: SK-OV-3 ovarian
UACC-257 melanoma = system: UACC-257 melanoma
ACHN renal = system: ACHN renal
SK-MEL-28 melanoma = system: SK-MEL-28 melanoma
U251 glioblastoma = system: U251 glioblastoma
RPMI-8226 leukemia = system: RPMI-8226 leukemia
HCC-2998 colon = system: HCC-2998 colon
OVCAR-4 ovarian = system: OVCAR-4 ovarian
NCI-H226 lung = system: NCI-H226 lung
HS 578T breast = system: HS 578T breast
SK-MEL-5 melanoma = system: SK-MEL-5 melanoma
NCI-H460 NSCLC = system: NCI-H460 NSCLC
NCI-H23 lung = system: NCI-H23 lung
SR leukemia = system: SR leukemia
SNB-75 CNS = system: SNB-75 CNS
MDA-MB-468 breast = system: MDA-MB-468 breast
OVCAR-3 ovarian = system: OVCAR-3 ovarian
CCRF-CEM leukemia = system: CCRF-CEM leukemia
HCT-116 colon = system: HCT-116 colon
BT-549 breast = system: BT-549 breast
MOLT-4 leukemia = system: MOLT-4 leukemia
HOP-92 NSCLC = system: HOP-92 NSCLC
A549 NSCLC = system: A549 NSCLC
HT29 colon = system: HT29 colon
NCI/ADR-RES ovarian = system: NCI/ADR-RES ovarian
K-562 leukemia = system: K-562 leukemia
SW-620 colon = system: SW-620 colon
T-47D breast = system: T-47D breast
DU-145 prostate = system: DU-145 prostate
CAKI-1 renal = system: CAKI-1 renal
786-0 renal = system: 786-0 renal
MDA-MB-231 breast = system: MDA-MB-231 breast
RXF 393 renal = system: RXF 393 renal
SN12C renal = system: SN12C renal
SF-295 CNS = system: SF-295 CNS
MCF7 breast = system: MCF7 breast
OVCAR-8 ovarian = system: OVCAR-8 ovarian
NCI-H322M lung = system: NCI-H322M lung
UO-31 renal = system: UO-31 renal
COLO 205 colon = system: COLO 205 colon
HL-60(TB) leukemia = system: HL-60(TB) leukemia
M14 melanoma = system: M14 melanoma
SF-539 CNS = system: SF-539 CNS
A498 renal = system: A498 renal
MALME-3M melanoma = system: MALME-3M melanoma
HOP-62 NSCLC = system: HOP-62 NSCLC
IGROV1 ovarian = system: IGROV1 ovarian
NCI-H522 lung = system: NCI-H522 lung
PC-3 prostate = system: PC-3 prostate
UACC-62 melanoma = system: UACC-62 melanoma
SF-268 CNS = system: SF-268 CNS
TK-10 renal = system: TK-10 renal
LOX IMVI melanoma = system: LOX IMVI melanoma
MDA-MB-435 melanoma = system: MDA-MB-435 melanoma

C[C@@H]1COCCN1c1cc(-c2ccnn2C)c2ccnc(-c3ccn[nH]3)c2n1
GI50 (SNB-19 CNS): 282 nM
TGI (SNB-19 CNS): 9.47 µM
GI50 (EKVX NSCLC): 124 nM
TGI (EKVX NSCLC): 2480 nM
GI50 (SK-OV-3 ovarian): 63.5 nM
TGI (SK-OV-3 ovarian): 539 nM
GI50 (UACC-257 melanoma): 1820 nM
TGI (UACC-257 melanoma): 14 µM
GI50 (ACHN renal): 49.8 nM
TGI (ACHN renal): 225 nM
GI50 (SK-MEL-28 melanoma): 1030 nM
TGI (SK-MEL-28 melanoma): 13.9 µM
GI50 (U251 glioblastoma): 123 nM
TGI (U251 glioblastoma): 11.9 µM
GI50 (RPMI-8226 leukemia): 17.4 nM
TGI (RPMI-8226 leukemia): 45.2 nM
GI50 (HCC-2998 colon): < 10 nM
TGI (HCC-2998 colon): 18 nM
GI50 (OVCAR-4 ovarian): 39 nM
TGI (OVCAR-4 ovarian): 2720 nM
GI50 (NCI-H226 lung): 341 nM
TGI (NCI-H226 lung): 4.02 µM
GI50 (HS 578T breast): 16.7 nM
TGI (HS 578T breast): 46.5 nM
GI50 (SK-MEL-5 melanoma): 202 nM
TGI (SK-MEL-5 melanoma): 873 nM
GI50 (NCI-H460 NSCLC): 10.6 nM
TGI (NCI-H460 NSCLC): 515 nM
GI50 (NCI-H23 lung): 16.2 nM
TGI (NCI-H23 lung): 56.3 nM
GI50 (SR leukemia): < 10 nM
GI50 (SNB-75 CNS): 264 nM
TGI (SNB-75 CNS): 1760 nM
GI50 (MDA-MB-468 breast): 192 nM
TGI (MDA-MB-468 breast): 973 nM
GI50 (OVCAR-3 ovarian): 91.1 nM
TGI (OVCAR-3 ovarian): 2620 nM
GI50 (CCRF-CEM leukemia): < 10 nM
TGI (CCRF-CEM leukemia): 21.5 nM
GI50 (HCT-116 colon): 32.9 nM
TGI (HCT-116 colon): 7.97 µM
GI50 (BT-549 breast): 22.2 nM
TGI (BT-549 breast): 87.1 nM
GI50 (MOLT-4 leukemia): < 10 nM
TGI (MOLT-4 leukemia): 15.5 nM
GI50 (HOP-92 NSCLC): 36.2 nM
TGI (HOP-92 NSCLC): 339 nM
GI50 (A549 NSCLC): 104 nM
TGI (A549 NSCLC): 2230 nM
GI50 (HT29 colon): 234 nM
TGI (HT29 colon): 706 nM
GI50 (NCI/ADR-RES ovarian): 72 nM
TGI (NCI/ADR-RES ovarian): 270 nM
GI50 (K-562 leukemia): 40.4 nM
TGI (K-562 leukemia): 125 nM
GI50 (SW-620 colon): 247 nM
TGI (SW-620 colon): 19.3 µM
GI50 (T-47D breast): 389 nM
TGI (T-47D breast): 8.1 µM
GI50 (DU-145 prostate): 53 nM
TGI (DU-145 prostate): 16.3 µM
GI50 (CAKI-1 renal): 142 nM
TGI (CAKI-1 renal): 1800 nM
GI50 ([…]-0 renal): 37.3 nM
TGI (786-0 renal): 191 nM
GI50 (MDA-MB-231 breast): 353 nM
TGI (MDA-MB-231 breast): > 100 µM
GI50 (RXF 393 renal): 27.7 nM
TGI (RXF 393 renal): 105 nM
GI50 (SN12C renal): 273 nM
TGI (SN12C renal): 6.65 µM
GI50 (SF-295 CNS): 36.9 nM
TGI (SF-295 CNS): 173 nM
GI50 (MCF7 breast): 18.8 nM
TGI (MCF7 breast): 14.2 µM
GI50 (OVCAR-8 ovarian): 61.1 nM
TGI (OVCAR-8 ovarian): 357 nM
GI50 (NCI-H322M lung): 21.7 nM
TGI (NCI-H322M lung): 213 nM
GI50 (UO-31 renal): 58.6 nM
TGI (UO-31 renal): 828 nM
GI50 (COLO 205 colon): 286 nM
TGI (COLO 205 colon): 2580 nM
GI50 (HL-60(TB) leukemia): 26.8 nM
TGI (HL-60(TB) leukemia): 83.9 nM
GI50 (M14 melanoma): 13.2 nM
TGI (M14 melanoma): 41.5 nM
GI50 (SF-539 CNS): 43.2 nM
TGI (SF-539 CNS): 259 nM
GI50 (A498 renal): 19.3 nM
TGI (A498 renal): 67.7 nM
GI50 (MALME-3M melanoma): 89.6 nM
TGI (MALME-3M melanoma): 985 nM
GI50 (HOP-62 NSCLC): 28 nM
TGI (HOP-62 NSCLC): 155 nM
GI50 (IGROV1 ovarian): 93.2 nM
TGI (IGROV1 ovarian): 2490 nM
GI50 (NCI-H522 lung): 411 nM
TGI (NCI-H522 lung): 10.7 µM
GI50 (PC-3 prostate): 262 nM
TGI (PC-3 prostate): 11.8 µM
GI50 (UACC-62 melanoma): 176 nM
TGI (UACC-62 melanoma): 2140 nM
GI50 (SF-268 CNS): 97.4 nM
TGI (SF-268 CNS): 10.5 µM
GI50 (TK-10 renal): 28.7 nM
TGI (TK-10 renal): 94.1 nM
GI50 (LOX IMVI melanoma): 98.4 nM
TGI (LOX IMVI melanoma): 1090 nM
GI50 (MDA-MB-435 melanoma): 33 nM
TGI (MDA-MB-435 melanoma): 456 nM
